Source: ChEMBL document CHEMBL1201862, “PubChem BioAssay data set” (2004)
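Following 48 hours of exposure in 96-well plates, responses at five concentrations were used to interpolate endpoints linearly. GI50: concentration for 50% inhibition of growth.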 Calls of active or inactive are those of the source. Cut-off read from the data, not from the text of the source: active = GI50 up to about 1.1 µM and inactive = higher.

Experiments:
Experiment in all cases: inhibition of tumour cell growth, NCI panel, 48 h
COLO 205 = system: COLO 205
NCI-H226 = system: NCI-H226
U-251 = system: U-251
T47D = system: T47D
LOX IMVI = system: LOX IMVI
NCI-H23 = system: NCI-H23
SK-MEL-5 = system: SK-MEL-5
MDA-MB-231 = system: MDA-MB-231
TK-10 = system: TK-10
OVCAR-8 = system: OVCAR-8
SK-MEL-2 = system: SK-MEL-2
Hs-578T = system: Hs-578T
RXF 393 = system: RXF 393
A549 = system: A549
BT-549 = system: BT-549
Malme-3M = system: Malme-3M
SNB-75 = system: SNB-75
EKVX = system: EKVX
SN12C = system: SN12C
MDA-MB-435 = system: MDA-MB-435
IGROV-1 = system: IGROV-1
HCC 2998 = system: HCC 2998
PC-3 = system: PC-3
SF-268 = system: SF-268
SK-OV-3 = system: SK-OV-3
UACC-62 = system: UACC-62
A498 = system: A498
KM12 = system: KM12
OVCAR-4 = system: OVCAR-4
HOP-62 = system: HOP-62
HCT-116 = system: HCT-116
OVCAR-3 = system: OVCAR-3
HT-29 = system: HT-29
UO-31 = system: UO-31
SNB-19 = system: SNB-19
DU-145 = system: DU-145
SW-620 = system: SW-620
CAKI-1 = system: CAKI-1
MDA-N = system: MDA-N
OVCAR-5 = system: OVCAR-5
MOLT-4 = system: MOLT-4
M14 = system: M14
ACHN = system: ACHN
K562 = system: K562
RPMI-8226 = system: RPMI-8226
CCRF-CEM = system: CCRF-CEM
786-0 = system: 786-0
NCI/ADR-RES = system: NCI/ADR-RES
SF-295 = system: SF-295
UACC-257 = system: UACC-257
MCF7 = system: MCF7
HCT-15 = system: HCT-15
SK-MEL-28 = system: SK-MEL-28
HOP-92 = system: HOP-92
HL-60 = system: HL-60
SF-539 = system: SF-539
SR = system: SR
NCI-H522 = system: NCI-H522

How did the GI50 (COLO 205) turn out when Cc1ccsc1/C=N/Nc1ccccn1 was run?
The GI50 was 71.1 µM (inactive).

What about the GI50 (NCI-H226) of the same compound?
The GI50 was > 100 µM (inactive).

And the GI50 (U-251)?
Its GI50 is 76.6 µM (inactive).

What about the GI50 (T47D) of the same compound?
The GI50 was 60.7 µM (inactive).

And the GI50 (LOX IMVI)?
Its GI50 is 37.2 µM (inactive).

And the GI50 (NCI-H23)?
The GI50 was 70.6 µM (inactive).

And the GI50 (SK-MEL-5)?
The GI50 was 25.9 µM (inactive).

And the GI50 (MDA-MB-231)?
The GI50 was 50 µM (inactive).

What about the GI50 (TK-10) of the same compound?
The GI50 was 57.3 µM (inactive).

What about the GI50 (OVCAR-8) of the same compound?
The GI50 was 66.1 µM (inactive).

What about the GI50 (SK-MEL-2) of the same compound?
Its GI50 is 34.3 µM (inactive).

What about the GI50 (Hs-578T) of the same compound?
Its GI50 is > 100 µM (inactive).

And the GI50 (RXF 393)?
The GI50 was > 100 µM (inactive).

And the GI50 (A549)?
Its GI50 is 7.4 µM (inactive).

And the GI50 (BT-549)?
The GI50 was > 100 µM (inactive).

What about the GI50 (Malme-3M) of the same compound?
The GI50 was 34.8 µM (inactive).

What about the GI50 (SNB-75) of the same compound?
The GI50 was 50.2 µM (inactive).

And the GI50 (EKVX)?
Its GI50 is 15.2 µM (inactive).

And the GI50 (SN12C)?
The GI50 was > 100 µM (inactive).

And the GI50 (MDA-MB-435)?
The GI50 was 50.6 µM (inactive).

What about the GI50 (IGROV-1) of the same compound?
The GI50 was 16.9 µM (inactive).

And the GI50 (HCC 2998)?
Its GI50 is 99.5 µM (inactive).

What about the GI50 (PC-3) of the same compound?
The GI50 was 39.5 µM (inactive).

What about the GI50 (SF-268) of the same compound?
Its GI50 is > 100 µM (inactive).

And the GI50 (SK-OV-3)?
Its GI50 is > 100 µM (inactive).

What about the GI50 (UACC-62) of the same compound?
Its GI50 is 74 µM (inactive).

And the GI50 (A498)?
The GI50 was 55 µM (inactive).

And the GI50 (KM12)?
The GI50 was 35.6 µM (inactive).

And the GI50 (OVCAR-4)?
Its GI50 is 76.2 µM (inactive).

What about the GI50 (HOP-62) of the same compound?
Its GI50 is > 100 µM (inactive).

What about the GI50 (HCT-116) of the same compound?
Its GI50 is 43.8 µM (inactive).

And the GI50 (OVCAR-3)?
Its GI50 is 47.5 µM (inactive).

And the GI50 (HT-29)?
The GI50 was 32.8 µM (inactive).

And the GI50 (UO-31)?
The GI50 was 71.3 µM (inactive).

And the GI50 (SNB-19)?
Its GI50 is > 100 µM (inactive).

What about the GI50 (DU-145) of the same compound?
The GI50 was 55.6 µM (inactive).

And the GI50 (SW-620)?
Its GI50 is 74.3 µM (inactive).

What about the GI50 (CAKI-1) of the same compound?
Its GI50 is > 100 µM (inactive).

What about the GI50 (MDA-N) of the same compound?
The GI50 was 50.6 µM (inactive).

What about the GI50 (OVCAR-5) of the same compound?
Its GI50 is > 100 µM (inactive).

And the GI50 (MOLT-4)?
The GI50 was 32.8 µM (inactive).

And the GI50 (M14)?
The GI50 was 54 µM (inactive).

What about the GI50 (ACHN) of the same compound?
Its GI50 is 74.6 µM (inactive).

What about the GI50 (K562) of the same compound?
The GI50 was 43.1 µM (inactive).

And the GI50 (RPMI-8226)?
The GI50 was 19.3 µM (inactive).

And the GI50 (CCRF-CEM)?
Its GI50 is 40.5 µM (inactive).

What about the GI50 (786-0) of the same compound?
Its GI50 is 68.5 µM (inactive).

And the GI50 (NCI/ADR-RES)?
Its GI50 is 45.3 µM (inactive).

What about the GI50 (SF-295) of the same compound?
Its GI50 is > 100 µM (inactive).

What about the GI50 (UACC-257) of the same compound?
The GI50 was 54.2 µM (inactive).

And the GI50 (MCF7)?
The GI50 was 1.71 µM (inactive).

What about the GI50 (HCT-15) of the same compound?
Its GI50 is 60.1 µM.

And the GI50 (SK-MEL-28)?
Its GI50 is 98.6 µM (inactive).

And the GI50 (HOP-92)?
The GI50 was 49.3 µM (inactive).

With [O-][n+]1cn[n+]([O-])c2ccccc21 as the compound, how does the GI50 (COLO 205) read?
The GI50 was 19.2 µM (inactive).

What about the GI50 (NCI-H226) of the same compound?
Its GI50 is > 100 µM (inactive).

What about the GI50 (U-251) of the same compound?
Its GI50 is 32.4 µM (inactive).

And the GI50 (T47D)?
The GI50 was 5.97 µM (inactive).

What about the GI50 (LOX IMVI) of the same compound?
The GI50 was 23.9 µM (inactive).

What about the GI50 (NCI-H23) of the same compound?
The GI50 was 65.3 µM (inactive).

What about the GI50 (SK-MEL-5) of the same compound?
The GI50 was > 10 µM (inactive).

And the GI50 (MDA-MB-231)?
Its GI50 is 14.3 µM (inactive).

And the GI50 (TK-10)?
The GI50 was > 100 µM (inactive).

And the GI50 (OVCAR-8)?
Its GI50 is 18.9 µM (inactive).

And the GI50 (SK-MEL-2)?
Its GI50 is 27.4 µM (inactive).

And the GI50 (Hs-578T)?
The GI50 was 57.1 µM (inactive).

What about the GI50 (RXF 393) of the same compound?
The GI50 was 20.7 µM (inactive).

And the GI50 (A549)?
The GI50 was 39.6 µM (inactive).

What about the GI50 (BT-549) of the same compound?
Its GI50 is 23.7 µM (inactive).

And the GI50 (Malme-3M)?
Its GI50 is 18.6 µM (inactive).

And the GI50 (SNB-75)?
Its GI50 is 66.5 µM (inactive).

And the GI50 (EKVX)?
Its GI50 is 33 µM (inactive).

What about the GI50 (SN12C) of the same compound?
Its GI50 is 38.3 µM (inactive).

What about the GI50 (MDA-MB-435) of the same compound?
The GI50 was 67.3 µM (inactive).

What about the GI50 (IGROV-1) of the same compound?
The GI50 was 11.2 µM (inactive).

What about the GI50 (HCC 2998) of the same compound?
The GI50 was 27.1 µM (inactive).

And the GI50 (PC-3)?
The GI50 was 11.7 µM (inactive).

What about the GI50 (HL-60) of the same compound?
The GI50 was 5.04 µM (inactive).

What about the GI50 (SF-268) of the same compound?
Its GI50 is 33.2 µM (inactive).

And the GI50 (SK-OV-3)?
The GI50 was 27.3 µM (inactive).

What about the GI50 (UACC-62) of the same compound?
Its GI50 is 16.3 µM (inactive).

And the GI50 (A498)?
The GI50 was 61.4 µM (inactive).

And the GI50 (SF-539)?
The GI50 was 22.3 µM (inactive).

What about the GI50 (KM12) of the same compound?
Its GI50 is 19.5 µM (inactive).

What about the GI50 (HOP-62) of the same compound?
The GI50 was 17.9 µM (inactive).

What about the GI50 (HCT-116) of the same compound?
Its GI50 is 13.3 µM (inactive).

What about the GI50 (HT-29) of the same compound?
The GI50 was 13.6 µM (inactive).

What about the GI50 (UO-31) of the same compound?
Its GI50 is 28.3 µM (inactive).

What about the GI50 (SNB-19) of the same compound?
The GI50 was 84.1 µM (inactive).

And the GI50 (DU-145)?
Its GI50 is 63.1 µM (inactive).

And the GI50 (SW-620)?
Its GI50 is 6.82 µM (inactive).

What about the GI50 (CAKI-1) of the same compound?
Its GI50 is 18.9 µM (inactive).

And the GI50 (MDA-N)?
The GI50 was 20.1 µM (inactive).

And the GI50 (OVCAR-5)?
Its GI50 is > 100 µM (inactive).

And the GI50 (MOLT-4)?
The GI50 was 2.91 µM (inactive).

And the GI50 (M14)?
Its GI50 is 23.8 µM (inactive).

And the GI50 (ACHN)?
Its GI50 is 12.2 µM (inactive).

What about the GI50 (SR) of the same compound?
Its GI50 is 18.4 µM (inactive).

What about the GI50 (K562) of the same compound?
Its GI50 is 6.95 µM (inactive).

What about the GI50 (RPMI-8226) of the same compound?
The GI50 was 28.6 µM (inactive).

What about the GI50 (CCRF-CEM) of the same compound?
The GI50 was 3.46 µM (inactive).

And the GI50 (NCI-H522)?
The GI50 was 15.1 µM (inactive).

And the GI50 (786-0)?
The GI50 was 14.6 µM (inactive).

What about the GI50 (NCI/ADR-RES) of the same compound?
Its GI50 is 23.5 µM (inactive).

And the GI50 (SF-295)?
The GI50 was 30.3 µM (inactive).

And the GI50 (UACC-257)?
The GI50 was 16.9 µM (inactive).

What about the GI50 (MCF7) of the same compound?
The GI50 was 14.3 µM (inactive).

What about the GI50 (HCT-15) of the same compound?
Its GI50 is 16.4 µM.

What about the GI50 (SK-MEL-28) of the same compound?
Its GI50 is > 100 µM (inactive).
